Residues, ends and D or L forms follow the SMILES beside them. *: point of attachment. Cbz = O=C(OCc1ccccc1)*
Tests used:
Assay type in all cases: in vivo, mouse
[1] = test system: AgRP neurons (hM4Di DREADD); test: CNO in Agrp-Ires-Cre; Npy-hrGFP mice with rAAV-hM4Di-mCherry (DREADD) in the ARC; settings: CNO 1.5 mg/kg/day i.p., 14 days
Excerpt: FIG. 3. TCPTP deletion in AgRP neurons or AgRP neuronal inhibition promotes WAT browning and energy expenditure. a) Body weights, b) body composition, c) energy expenditure, d) daily food intake and e) BAT Ucp-1 gene expression in 18-week-old AgRP-TC and Ptpn2^fl/fl male mice. Inguinal WAT (ingWAT) was extracted from Ptpn2^fl/fl and AgRP-TC male mice and processed for f) histology (hematoxylin and eosin: H&E) and immunohistochemistry, g) quantitative PCR and h) immunoblotting. i) Ptpn2^fl/fl and AgRP-TC and Ptpn2^fl/fl male mice were subjected to ^18F-fluoro-2-deoxy-D-glucose (^18F-FDG) positron emission tomography (PET)-computed tomography (CT). Representative images and ingWAT ^18F-FDG standard uptake values (SUV) and normalised uptake per tissue volume are shown. Ptpn2^fl/fl and AgRP-TC male mice ingWAT depots were bilaterally sham-operated or denervated with 6-ODHA and j) weekly body weights recorded and k) energy expenditure measured. l) Ptpn2^fl/fl, AgRP-TC or AgRP-TC-IR male mice were fasted overnight and administered (intraperitoneal) insulin (0.85 mU/g, 15 min) and brains extracted for ARC p-AKT immunohistochemistry. m) Energy expenditure, n) body weights and o) ingWAT weights in 14-week-old Ptpn2^fl/fl, AgRP-TC or AgRP-TC-IR male mice. p-r) IngWAT and BAT were extracted from Ptpn2^fl/fl, AgRP-TC or AgRP-TC-IR male mice for gene expression analyses or histology/immunohistochemistry. s-t) 10-week-old Npy-hrGFP; Agrp-Ires-Cre mice were bilaterally injected with rAAV-hM4Di-mCherry into the ARC. […] Representative and quantified results (means±SEM) are shown for the indicated number of mice. * for significance between Ptpn2^fl/fl and AgRP-TC mice; # for significance between treated AgRP-TC or AgRP verses AgRP-TC-IR mice.
FIG. 10. […] Representative and quantified results (means±SEM) are shown for the indicated number of mice. […]

[2] = test system: diet-induced obese mice; test: ICV Claramine for 10 consecutive days in 12-week high fat fed mice; settings: ICV 1 and 10 μg/animal/day
Method: (§1) FIG. 23. CNS administration of PTP1B inhibitor (Claramine) dose dependently attenuates body weight, adiposity and food intake without regulating energy expenditure in diet-induced obese mice. […] Data were collected into 5 min time bins and are presented as percentage of total behavior. Crossover graphs indicating the point of transition from eating to resting and the dashed line represents the time bin in which groups spent an equivalent amount of time eating and resting and is represented as f) time of cross over.

[3] = test system: diet-induced obese mice; test: Behavioral satiety sequence after ICV Claramine in overnight fasted high fat fed mice; settings: ICV 1 and 10 μg/animal
Method: as §1

[4] = test system: 8-10-week C57BL/6 male mice; test: Intranasal RU486 or Claramine for 10 consecutive days in 8-10-week C57BL/6 male mice; settings: RU486 1, 5, 10 or Claramine 1, 10 and 20 μg/animal/day
Method: 8-10-week C57BL/6 male mice were mice received glucocorticoid antagonist (RU486: 1, 5, 10 μg/animal/day; intranasal; 12 μl total volume) and/or PTP1B inhibitor (Claramine: 1, 10 and 20 μg/animal/day, intranasal; 12 μl total volume) for 10 consecutive days and effects on a, f) body weight, b, g) food intake, c, h) adiposity (EchoMRI and fad pad weight) was determined.

[5] = test system: TCPTP protein in the MBH; test: ICV MG132 in fasted (24 h) mice re-fed 4 h; MBH immunoblotting for TCPTP; settings: ICV 2 μl 50 μM, 4 h re-feeding
Method: The alterations in hypothalamic TCPTP in fed and fasted mice might be a specific response to nutritional signals. To explore this, experiments were performed to determined when the hypothalamic TCPTP levels returned to the pre-fasted state, when 24 h fasted mice were re-fed for 4 h (FIG. 1a). Hypothalamic TCPTP protein, as assessed by immunoblotting MBH homogenates (FIG. 1c), or Ptpn2 expression, as assessed by real time PCR (FIG. 1d), declined to pre-fasted levels in re-fed mice. The decline in TCPTP occurred throughout the ARC (FIG. 8c). The decline in TCPTP was accompanied by increased IR and AKT phosphorylation (FIG. 1e), consistent with the potential enhancement of insulin sensitivity. Since the half-life for TCPTP protein is roughly 16 h (Bukczynska et al., 2004), we reasoned that the decline in TCPTP might reflect increased degradation. The proteasome can influence hypothalamic protein abundance in response to feeding (Sasaki et al., 2010). To test its contribution to TCPTP degradation in re-fed mice, we administered fasted (24 h) mice the proteasome inhibitor MG132 intracerebroventricularly (ICV) and assessed the influence on TCPTP protein in the MBH after 4 h of re-feeding.

[6] = test system: PTP1B levels; test: ICV MG132 in fasted (24 h) mice re-fed 4 h; MBH immunoblotting for PTP1B; settings: ICV 2 μl 50 μM, 4 h re-feeding
[7] = test system: diet-induced obese mice; test: ICV RU486 for 10 consecutive days in 12-week high fat fed mice; settings: ICV 1 μg/animal
Method: FIG. 16. […] 12 week high fat fed C57BL/6 male mice were mice were sham or bi-laterally denervated (6-ODHA) to prevent WAT browning and then administered the glucocorticoid antagonist RU486 intracerebroventricularly (ICV; 1 μg/animal), twice daily (9 am & […]) for 10 consecutive days. Effects on body weight and adiposity (EchoMRI and fad pad weight) were determined. WAT browning was assessed by gross morphology.
FIG. 17. A glucocorticoid antagonist promotes WAT browning and increases energy expenditure without any obvious adverse behavioral effects. […] Effects on energy expenditure (indirect calorimetry) and stereotypical behaviors were determined using the Promethion metabolic cage system.
FIG. 22. […] 12-week high fat fed C57BL/6 male mice received glucocorticoid antagonist (RU486: 0.1, 1 and 2 μg/animal/day, ICV) for 10 consecutive days and a) body weights, b) food intake, c) adiposity (EchoMRI and fad pad weight), d) energy expenditure were determined.
Insulin and glucose tolerance tests and blood glucose and plasma insulin were measured as described previously (Dodd et al., 2015 as above; Loh et al., 2009 Cell Metab 10, 260-272). Plasma corticosterone was measured by ELISA (Arbor Assays). […]
Effects on body weight and adiposity (EchoMRI and fat pad weight) were determined. […]
Effects on energy expenditure and stereotypical behaviours were determined using the Promethion metabolic cages system.

[8] = test system: hypothalamic TCPTP (Ptpn2) expression; test: ICV ghrelin, UDP or dexamethasone (plus or minus RU486) in re-fed mice; hypothalamic TCPTP immunohistochemistry and Ptpn2 real time PCR; settings: for TCPTP protein levels (immunohistochemistry): ICV twice over 4 h in fasted and re-fed (4 h) mice
Method: Paraformaldehyde-fixed brains were extracted and processed for TCPTP immunohistochemistry. e) 8-week-old fed or 24 h fasted C57BL/6 male mice were administered (intraperitoneal) saline, or leptin (0.5 μg/g body weight, 45 min) and paraformaldehyde-fixed brains extracted for immunohistochemistry monitoring for STAT3 Y705 phosphorylation (p-STAT3) in the central-caudal ARC. f) Tissues from 8-week-old AgRP-TC mice were screened for the presence of the recombined Ptpn2 allele (ΔPtpn2) by PCR (Wiede et al., 2011). g) 8-week-old Ptpn2^fl/fl; Npy-hrGFP or AgRP-TC; Npy-hrGFP mice were perfused with paraformaldehyde and brains extracted and processed for immunohistochemistry monitoring for TCPTP in GFP-positive AgRP/NPY neurons in the central-caudal ARC. Yellow arrows depict TCPTP positive NPY cells, blue arrows depict TCPTP negative NPY cells. h) Brains from 8-week-old fed or 24 h fasted Ptpn2^fl/fl; Npy-hrGFP or AgRP-TC; Npy-hrGFP male mice were paraformaldehyde-fixed and processed for ARC p-AKT immunohistochemistry. i-j) 8-week-old Ptpn2^fl/fl or AgRP-TC male mice were fasted and injected (intraperitoneal) with saline, insulin (0.85 mU/g) or leptin (1 μg/g body weight) and hypothalami extracted 2 h later for quantitative PCR. k) 8-week-old Ptpn2^fl/fl; Npy-hrGFP or AgRP-TC; Npy-hrGFP male mice were fasted overnight and administered vehicle PBS or leptin (0.5 μg/g body weight, intraperitoneal) for 45 min and paraformaldehyde-fixed brains extracted and processed for immunofluorescence microscopy monitoring for p-STAT3 and GFP. l) Plasma insulin levels in 8-10-week-old fed or food restricted (just prior to lights out, 6:30 μm) C57BL/6 male mice.
Under 2% (v/v) isoflurane in 1 l/min oxygen 8-week-old AgRP-TC, Ptpn2^fl/fl or C57BL/6 mice were implanted stereotaxically with guide cannulas into the right lateral ventricle (0.2 mm posterior, 1.0 mm lateral from bregma). […] Mice received a second injection 2 h later and after a further 2 h mice were perfused with paraformaldehyde for immunohistochemical analysis, or hypothalami extracted for quantitative real time PCR.

[9] = test system: 20-week high fat fed C57BL/6 male mice; test: Intra-ARC infusion of TCPTP inhibitor in 20-week high fat fed mice switched to chow diet; settings: intra-ARC 0.5 nmol/day at 0.25 ul/h, mice placed on chow diet (9% fat)
Method: FIG. 18. […] 2-weeks post AAV injection mice were placed on chow diet (9% fat) and weekly body weight was monitored. b) 20-week high fat fed (23% fat) C57BL/6 male mice were implanted with bilateral intraARC cannula connected to Alzet osmotic minipumps (Alzet, 1002) and infused with vehicle or TCPTP inhibitor (compound 8 as described herein, 0.5 nmol/day at a rate of 0.25 ul/h). Mice were placed on chow diet (9% fat) and daily body weight was monitored.
2-weeks post AAV injection mice were placed on chow diet (9% fat) and weekly body weight was monitored. b) 20-week high fat fed (23% fat) C57BL/6 male mice were implanted with bilateral intra-ARC cannula connected to Alzet osmotic minipumps (Alzet, 1002) and infused with vehicle or TCPTP inhibitor (compound 8, 0.5 nmol/day at a rate of 0.25 ul/h). Mice were placed on chow diet (9% fat) and daily body weight was monitored.

[10] = test system: ARC PI3K/AKT signaling (p-AKT); test: Insulin-induced ARC p-AKT (Ser-473) immunohistochemistry in fed or fasted mice; settings: insulin 0.85 mU/g i.p., 15 min
Method: 4 weeks post rAAV injection mice were administered (intraperitoneal) saline or insulin (0.85 mU/g, 15 min) and paraformaldehyde-fixed brains extracted for ARC p-AKT or GFP (insert) immunohistochemistry. d) Fed or fasted Ptpn2^fl/fl or AgRP-TC male mice were administered (intraperitoneal) saline or insulin (0.85 mU/g, 15 min) and paraformaldehyde-fixed brains extracted for ARC p-AKT immunohistochemistry. e) Fed or fasted Ptpn2^fl/fl versus AgRP-TC male mice on the Npy-hrGFP reporter background processed for c-Fos ARC immunohistochemistry. f) Whole-cell patch clamp recordings of hypothalamic NPY neurons from Ptpn2^fl/fl; Npy-hrGFP versus AgRP-TC; Npy-hrGFP male mice in response to insulin. […] Representative and quantified results (means±SEM) are shown for the indicated number of mice.
Mice were injected intraperitoneally with either vehicle, leptin (0.5-1.0 μg/g; Peprotech, Rehovot, Israel) for p-STAT-3 (Y705) or human insulin (0.85 mU/g, SIGMA, St Louis, Mo.) for p-AKT (Ser-473). Mice were transcardically perfused either 15 min (for p-AKT staining) or 45 min (for p-STAT3 staining) post-injection with a solution of 4% w/v (for p-AKT staining) paraformaldehyde. The brains were post-fixed overnight and then kept for two days in 30% (w/v) sucrose in 0.1 M phosphate buffer to cryoprotect the tissue, before freezing on dry ice. […]

For C[N+]1([O-])CCN(C2=Nc3cc(Cl)ccc3Nc3ccccc32)CC1 [CNO, clozapine-N-oxide], the body weights [1] was “decreased”, the food intake [1] was “decreased” and the WAT browning ([1]; sham-operated vs 6-OHDA denervated inguinal fat pads) was “marked WAT browning in the sham-operated, but not in the contralateral 6-OHDA denervated inguinal fat pads”.

CC(C)CCC[C@@H](C)[C@H]1CC[C@H]2[C@@H]3C[C@@H](NCCCNCCCCNCCCN)C4C[C@@H](O)CC[C@]4(C)[C@H]3CC[C@]12C (stereo partly drawn) [Claramine, (3β3,6β3)-6-[[3-[[4-[(3-Aminopropyl)amino]butyl]amino]propyl]amino]-cholestan-3-ol] was tested, and the “adiposity (EchoMRI and fad pad weight)” value [2] was “dose dependent attenuation”, the body weights [2] was “dose dependent attenuation” and the food intake [2] was “dose dependent attenuation”. The “adverse side effects as cause of reduced food intake” value [3] was “not by adverse side effects such as sedation or nausea”, the behavioral satiety sequence ([3]; overnight fasted, presented with food) was “dose dependent shift” and the adaptive thermogenesis [4] was “dose dependent effect”. For the same molecule, the adiposity [4] was “dose dependent effect”, the body weight [4] was “dose dependent effect” and the food intake [4] was “dose dependent effect”.

With CC(C)C[C@@H](C=O)NC(=O)[C@H](CC(C)C)NC(=O)[C@H](CC(C)C)NC(=O)OCc1ccccc1 [MG132] (Cbz-Leu-Leu-Leu-aldehyde) the “feeding-induced degradation of TCPTP” value [5] was “completely prevented” and the PTP1B levels [6] was “without affecting”.

CC#C[C@]1(O)CC[C@H]2[C@@H]3CCC4=CC(=O)CCC4=C3[C@@H](c3ccc(N(C)C)cc3)C[C@@]21C [RU486, 17-beta-hydroxy-11-beta-(4-dimethyl-aminophenyl)-17-alpha(1-propynyl)-estra-4,9-dien-3-one] was tested, and the adverse behaviours [7] was “not accompanied by adverse behaviours such as inactivity, hyperactivity or sedation”.

In the case of O=c1ccn([C@@H]2O[C@H](COP(=O)(O)OP(=O)(O)O)[C@@H](O)[C@H]2O)c(=O)[nH]1 [UDP, uridine 5′-diphosphate], the “TCPTP protein levels (immunohistochemistry)” value [8] was “Neither ghrelin nor UDP overtly altered”.

With CCc1ccc(C(=O)NCCCCC(NC(=O)C(Cc2ccc(C(F)(F)P(=O)(O)O)cc2)NC(=O)C(Cc2ccccc2)NC(=O)COC2CC(C)CCC2C(C)C)C(N)=O)cc1 (stereo not drawn) [compound 8] the “diet-induced weight loss (daily body weight)” value [9] was “enhances diet-induced weight loss”.

ghrelin was tested, and the “TCPTP protein levels (immunohistochemistry)” value [8] was “Neither ghrelin nor UDP overtly altered” and the “increase in Ptpn2 message” value ([8]; ICV twice over 4 h in re-fed mice, real time PCR) was ~3 fold.

insulin: human insulin (SIGMA) was tested, and the “ARC p-AKT in response to insulin” value ([10]; 24 h fasted C57BL6 mice) was “only modestly increased” and the “induction of ARC p-AKT in response to insulin” value ([10]; fed C57BL6 mice) was 3-4 fold.
